Test results taken from article PMC9196629, “Synthesis, Characterization and Antitumor Mechanism Investigation of Heterometallic Ru(Ⅱ)-Re(Ⅰ) Complexes” (Frontiers in Chemistry, 2022).

Experiments:
HeLa cells = test: Annexin V-FITC/PI double-staining apoptosis assay by flow cytometry; format: cell-based, human; conditions: 24 h, control 1.81%
Excerpt: The ability of RuRe-1 and RuRe-2 to induce apoptosis in HeLa cells was further verified using Annexin V-FITC/PI (FITC: fluorescein isothiocyanate; PI: propidium iodide) double-staining. In the early stage of apoptosis, the surface of the cell membrane is […], at which point the phosphatidylserine on the surface of the apoptotic cell flips from the inner cell membrane to the outer cell membrane, where it can be labelled by Annexin V ([Jan and Chaudhry, 2019]). The membrane permeability of PI is poor and thus only necrotic cells can be labelled ([Zec et al., 2014]).
FIGURE 3 RuRe-1 and RuRe-2 induced HeLa cells apoptosis measured by flow cytometry with Annexin V/PI staining. The incubation time of the compounds was 24 h. […]

[1] = system: A549 (human lung cancer cells); test: MTT cytotoxicity assay; format: cell-based; conditions: 48 h incubation, mean ± SD
Method: (§1) The anticancer activities of RuRe-1 and RuRe-2 against four cancer cell lines: HeLa (human cervical cancer cells), HepG2 (human hepatocellular carcinoma), A549 (human lung cancer cells), A549R (cisplatin-resistant A549) and one normal cell line LO2 (human normal liver cells) were determined by 3-(4,5-dimethylthiazole)-2,5-diphenyltetraazolium bromide (MTT) assay, while the mononuclear complexes Ru-1, Ru-2, Re-1 and cisplatin were selected as controls. […] And the in vitro antiproliferative efficacies of the compounds against HeLa cells were in the following order: RuRe-2 > RuRe-1 > Re-1 > cisplatin > Ru-1 > Ru-2. […] The anticancer activity of the mononuclear rhenium complex Re-1 was between 5.6 μM and 8.0 μM, which contributed the most to the antitumor activities of the heteronuclear Ru(II)-Re(Ⅰ) metal complexes.
(§2) Cell lines and culture conditions. HeLa, HepG2, A549, A549R and LO2 cells were purchased from Nanjing KeyGen Biotech., and cultured in DMEM or RPMI 1640 complete medium at 37 ℃ with 5% CO2 atmosphere.
(§3) In vitro cytotoxicity assay. The anti-tumor activity of mononuclear complexes Ru-1, Ru-2, Re-1 and heteronuclear RuRe-1 and RuRe-2 were determined by MTT (5 mg/mL) assay. Cells were placed in 96-well plates and cultured for 24 h at 37 ℃ in a 5% CO2 incubator. After replacing the culture medium with fresh medium containing RuRe-1 or RuRe-2 at the indicated concentration, cells were cultured for 48 h. 20 μL MTT was added to each well 4 h before the end of the incubation. Subsequently, the liquid in the cell wells was poured out and 150 μL/well DMSO was added to dissolve the MTT-formazan crystals. The absorbance of living cells at 570 nm was detected.

[2] = system: HepG2 (human hepatocellular carcinoma); test: MTT cytotoxicity assay; format: cell-based; conditions: 48 h incubation, mean ± SD
Method: as §1, §2, §3

[3] = system: HeLa (human cervical cancer cells); test: MTT cytotoxicity assay; format: cell-based; conditions: 48 h incubation, mean ± SD
Method: as §1, §2, §3

[4] = system: LO2 (human normal liver cells); test: MTT cytotoxicity assay; format: cell-based; conditions: 48 h incubation, mean ± SD
Method: as §1, §2, §3

[5] = Stability in PBS by UV-Vis spectroscopy; format: physicochemical; conditions: 10 μM, PBS, 0, 24 and 48 h
Method: The stabilities of RuRe-1 and RuRe-2 in PBS and human serum albumin (HSA) were tested through UV–Vis spectroscopy.
Supplementary Figure 12. UV-Vis absorption spectra of RuRe-1 (10 μM), RuRe-2 (10 μM), Ru-1 (10 μM), Ru-2 (10 μM) and Re-1 (10 μM) in PBS (A) and HSA (B) solution collected at 0, 24, and 48 h, respectively.

SMILES | percentage of apoptotic cells (early apoptotic + late apoptotic) (HeLa cells; 12.4 μM) [%] | IC50 [1] [µM] | IC50 [2] [µM] | IC50 [3] [µM] | IC50 [4] [µM] | stability in PBS (UV-Vis spectral characteristics and absorption peaks) [5] | percentage of apoptotic cells (early apoptotic + late apoptotic) (HeLa cells; 10.0 μM) [%]
F[P-](F)(F)(F)(F)F.F[P-](F)(F)(F)(F)F.F[P-](F)(F)(F)(F)F.[C-]#[O+].[C-]#[O+].[C-]#[O+].[Re+].[Ru+2].c1ccc(-c2ccccn2)nc1.c1ccc(-c2ccccn2)nc1.c1ccc(-c2ccnc3c2ccc2c(-c4ccccc4)ccnc23)cc1.c1cnc2c(c1)c1nc(-c3ccncc3)[nH]c1c1cccnc12 [RuRe-1, [Ru(bpy)2LRe(CO)3(DIP)](PF6)3] | 22.38 | 11.8 ± 0.4 | 10 ± 0.8 | 3.1 ± 0.8 | 25.1 ± 0.7 | no significant change | –
F[P-](F)(F)(F)(F)F.F[P-](F)(F)(F)(F)F.F[P-](F)(F)(F)(F)F.[C-]#[O+].[C-]#[O+].[C-]#[O+].[Re+].[Ru+2].c1ccc(-c2ccnc3c2ccc2c(-c4ccccc4)ccnc23)cc1.c1cnc2c(c1)c1nc(-c3ccncc3)[nH]c1c1cccnc12.c1cnc2c(c1)ccc1cccnc12.c1cnc2c(c1)ccc1cccnc12 [RuRe-2, [Ru(phen)2LRe(CO)3(DIP)](PF6)3] | – | 11.2 ± 0.9 | 12.5 ± 0.9 | 2.5 ± 1.3 | 28.1 ± 1.1 | no significant change | 22.26
